Experiments:
colon 38 tumours = assay: Response of colon 38 tumours in immunocompetent and Rag1 immunodeficient mice; format: in vivo
Procedure: A single dose of 5.9 mg/kg of the compound of Formula II was administered intraperitoneally to immunocompetent mice in A, while a 5.9 mg/kg dose on days 0 and 7 was administered to Rag 1 immunodeficient mice (see FIG. 13). […] Initial tumour response (apoptosis induction) is similar in normal and immunosuppressed mice. The compound of Formula II appears to induce a change in tumour cells that activates a T-cell mediated response leading to tumour regression. This dependence on T-cells for response might explain why only moderate activity of the compound of Formula II is found in xenografts.

JLD [1] = assay: In vitro cell survival assay; format: cell-based, human; details: resistant line JLD, 0.4 μM, one hour exposure
Procedure: (§1) Two HCT116 human colon carcinoma lines, one with TP53 wild type status and one with TP53 mutant status, were exposed to the compound of Formula II for 6 hours. The cells were washed free of drug and surviving cells were measured by clonogenic assay. The concentration for maximal reduction of cell survival was 1% for p53 wild-type cells and 5% for p53 mutant cells. The cytotoxicity of the compound of the present invention was also tested in three Jurkat leukaemia lines, two of which, JLA and JLD, are resistant to topoisomerase inhibitors because of low cellular levels of topoisomerase II.

JLA [2] = assay: In vitro cell survival assay; format: cell-based, human; details: resistant line JLA, 0.4 μM, one hour exposure
Procedure: as §1

wild-type Jurkat line = assay: In vitro cell survival assay; format: cell-based, human; details: 0.4 μM, one hour exposure
Procedure: as §1

HCT116p53− = assay: In vitro cell proliferation assay, continuous drug exposure; format: cell-based; details: Homo sapiens, continuous drug exposure 3-5 days
Description: (§2) The results with the JLA and JLD lines, which have reduced topoisomerase II content as compared to the parental Jurkat line, indicate that the IC50 value of the compound is increased with decreased topoisomerase content. This is also the case for etoposide, amsacrine, DACA and doxorubicin.

JLD [3] = assay: as above; format: cell-based; details: Homo sapiens; JLD (reduced topoisomerase II), continuous drug exposure 3-5 days
Description: as §2

JLA [4] = assay: as above; format: cell-based; details: Homo sapiens; JLA (reduced topoisomerase II), continuous drug exposure 3-5 days
Description: as §2

Jurkat = assay: as above; format: cell-based; details: Homo sapiens, continuous drug exposure 3-5 days
Description: as §2

HCT116p53+ = assay: as above; format: cell-based; details: Homo sapiens, continuous drug exposure 3-5 days
Description: as §2

With `Cc1cccc2cc3c(=O)n(C)cc(C(=O)NCCN(C)C)c3nc12` [Formula II, N-[2-(dimethylamino)ethyl]-2,6 dimethyl-1-oxo-1,2-dihydrobenzo[b]-1,6-naphthyridine-4-carboxamide] the “activity against colon 38 tumours” value (colon 38 tumours; Rag1 immunodeficient mice, 5.9 mg/kg on days 0 and 7) was “attenuated”, the “activity against colon 38 tumours” value (colon 38 tumours; immunocompetent mice, single dose of 5.9 mg/kg intraperitoneally) was “active” and the survival (JLD [1]) was 100%. The survival (JLA [2]) was 100%, the survival (wild-type Jurkat line) was 28% and the IC50 (HCT116p53−) was 11 nM. It also gave an IC50 (JLD [3]) of 53 nM, an IC50 (JLA [4]) of 38 nM and an IC50 (Jurkat) of 6.7 nM. It also gave an IC50 (HCT116p53+) of 8.6 nM.
